We go through 22 molecules from US10828305B2 (SHANGHAI PHARMACEUTICALS HOLDING CO., LTD., priority 2016, dated 2020).

The target of one experiment is ErbB2 kinase (Homo sapiens, UniProt P04626). The experiment can be described thus: Enzymatic experiment on ErbB2 (HTRF kinEASE-TK). The format is biochemical. The conditions noted are these: ATP 4 μM; read-out: Kinase IC50 (nM) in vitro ErbB2. The gist of the method: (§1)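 HTRF kinEASE-TK with biotinylated TK substrate in HEPES pH 7.0 buffer containing MnCl2, MgCl2 and DTT; ErbB2 at 0.06 ng/μl with 4 μM ATP, EGFR at 0.06 units/μl with 1.65 μM ATP, 30 min at room temperature after 5 min enzyme/substrate–compound preincubation. Ten-point 3-fold dilutions; Eu antibody/SA-XL665 detection, 665/620 ratio.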
Sequence of ErbB2 kinase (P04626 23-1255): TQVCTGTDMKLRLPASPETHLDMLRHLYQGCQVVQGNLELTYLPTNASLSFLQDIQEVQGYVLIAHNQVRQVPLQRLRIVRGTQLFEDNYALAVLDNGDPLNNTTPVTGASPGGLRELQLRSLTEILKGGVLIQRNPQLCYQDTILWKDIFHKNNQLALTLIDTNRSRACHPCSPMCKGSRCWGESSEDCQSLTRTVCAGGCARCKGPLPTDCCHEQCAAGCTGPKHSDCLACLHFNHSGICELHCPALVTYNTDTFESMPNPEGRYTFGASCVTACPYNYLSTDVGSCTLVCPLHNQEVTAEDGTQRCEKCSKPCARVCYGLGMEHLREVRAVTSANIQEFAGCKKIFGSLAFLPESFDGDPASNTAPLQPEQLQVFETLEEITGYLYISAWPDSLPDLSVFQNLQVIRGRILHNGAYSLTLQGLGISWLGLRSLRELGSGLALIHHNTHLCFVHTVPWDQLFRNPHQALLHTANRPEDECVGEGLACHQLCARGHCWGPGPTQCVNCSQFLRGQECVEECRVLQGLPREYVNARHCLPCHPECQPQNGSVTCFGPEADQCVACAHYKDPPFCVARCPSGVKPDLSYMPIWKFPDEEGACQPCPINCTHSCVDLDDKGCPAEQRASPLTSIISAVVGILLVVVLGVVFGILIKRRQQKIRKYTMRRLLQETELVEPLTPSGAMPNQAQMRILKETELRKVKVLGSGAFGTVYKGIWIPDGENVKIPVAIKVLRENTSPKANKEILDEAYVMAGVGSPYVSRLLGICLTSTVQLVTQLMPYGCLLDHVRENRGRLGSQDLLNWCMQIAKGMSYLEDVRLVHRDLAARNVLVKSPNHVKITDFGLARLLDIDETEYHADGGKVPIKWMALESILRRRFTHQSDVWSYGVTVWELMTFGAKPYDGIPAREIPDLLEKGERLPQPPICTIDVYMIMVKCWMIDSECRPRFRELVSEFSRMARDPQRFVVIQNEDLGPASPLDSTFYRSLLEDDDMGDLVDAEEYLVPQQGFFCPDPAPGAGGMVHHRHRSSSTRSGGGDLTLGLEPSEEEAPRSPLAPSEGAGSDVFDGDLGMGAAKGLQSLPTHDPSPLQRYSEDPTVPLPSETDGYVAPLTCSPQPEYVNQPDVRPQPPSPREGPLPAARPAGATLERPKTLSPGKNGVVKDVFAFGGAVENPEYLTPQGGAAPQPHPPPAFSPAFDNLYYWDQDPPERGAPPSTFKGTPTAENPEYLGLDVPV
(In general: Time-resolved FRET reads energy transfer from a long-lived donor to a nearby acceptor.)

Another experiment addresses EGFR kinase (Homo sapiens, UniProt P00533). The experiment can be described thus: Enzymatic experiment on EGFR (HTRF kinEASE-TK). The format is biochemical. As to conditions: ATP 1.65 μM; read-out: Kinase IC50 (nM) in vitro EGFR. The gist of the method: as §1
A further experiment deals with N87. The experiment can be described thus: Proliferation inhibition assay in vitro, N87 (CellTiter-Glo). The conditions noted are these: Homo sapiens; 72 hours; read-out: IC50(nM) cell N87. Type of experiment: cell-based. The gist of the method:
(§2)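 Cells were seeded at 8.8×10^4 cells/mL for BT-474 or 6.6×10^4 cells/mL for N87 and grown overnight. Compound was added at 9 concentrations in duplicate for 72 h at 37 °C, 5% CO2. Viability was measured by CellTiter-Glo.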
A general note: ATP-based viability assays read luminescence as a measure of living cells.

The test system of another experiment is BT-474. Nature of the experiment: Proliferation inhibition assay in vitro, BT-474 (CellTiter-Glo). As to conditions: Homo sapiens, 72 hours, read-out: IC50(nM) cell BT-474. Type of experiment: cell-based. The gist of the method: as §2

Sequence of EGFR kinase (P00533 25-1210): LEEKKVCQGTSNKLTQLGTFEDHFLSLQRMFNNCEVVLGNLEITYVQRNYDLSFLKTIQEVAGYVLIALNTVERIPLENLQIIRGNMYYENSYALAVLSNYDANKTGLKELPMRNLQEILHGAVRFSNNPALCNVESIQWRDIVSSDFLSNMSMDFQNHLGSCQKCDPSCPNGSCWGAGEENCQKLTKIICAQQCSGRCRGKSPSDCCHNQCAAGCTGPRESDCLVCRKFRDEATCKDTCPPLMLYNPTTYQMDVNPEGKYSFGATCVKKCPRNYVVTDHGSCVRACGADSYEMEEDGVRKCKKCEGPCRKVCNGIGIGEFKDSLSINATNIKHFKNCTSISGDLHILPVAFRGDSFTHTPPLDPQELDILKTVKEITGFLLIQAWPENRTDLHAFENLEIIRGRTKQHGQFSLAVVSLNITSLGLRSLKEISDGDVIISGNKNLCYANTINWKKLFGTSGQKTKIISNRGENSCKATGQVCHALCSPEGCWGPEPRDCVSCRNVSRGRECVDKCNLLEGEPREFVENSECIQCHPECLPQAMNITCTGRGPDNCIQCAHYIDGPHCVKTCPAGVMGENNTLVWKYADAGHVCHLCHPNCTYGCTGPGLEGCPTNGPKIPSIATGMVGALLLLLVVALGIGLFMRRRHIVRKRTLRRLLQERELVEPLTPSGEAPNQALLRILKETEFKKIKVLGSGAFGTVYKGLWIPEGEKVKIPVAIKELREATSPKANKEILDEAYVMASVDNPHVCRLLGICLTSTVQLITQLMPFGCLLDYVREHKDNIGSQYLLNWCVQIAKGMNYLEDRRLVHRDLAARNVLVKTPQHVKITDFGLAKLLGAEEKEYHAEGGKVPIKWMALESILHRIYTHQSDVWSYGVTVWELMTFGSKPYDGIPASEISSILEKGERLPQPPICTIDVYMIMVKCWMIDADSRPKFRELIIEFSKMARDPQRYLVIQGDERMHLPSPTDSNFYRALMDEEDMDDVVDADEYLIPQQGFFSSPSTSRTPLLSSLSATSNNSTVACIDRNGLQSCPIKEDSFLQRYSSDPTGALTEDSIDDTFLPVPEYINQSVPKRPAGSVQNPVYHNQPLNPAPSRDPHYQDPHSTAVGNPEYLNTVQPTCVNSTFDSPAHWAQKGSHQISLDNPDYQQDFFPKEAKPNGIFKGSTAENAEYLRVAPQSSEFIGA

The IC50 is the point on the concentration scale where inhibition reaches its midpoint. Regarding `CC1(C)COC(Nc2ccc3ncnc(Nc4ccc(Oc5cc6nncn6cn5)c(Cl)c4)c3c2)=N1` [Embodiment 78, N′-[3-chloro-4-([1,2,4]triazolo[4,3-c]pyrimidin-7-yloxy)phenyl)-N^6-(4,4-dimethyl-4,5-dihydrooxazol-2-yl)quinazolin-4,6-diamine], the IC50 on ErbB2 kinase turned out to be 1.8 nM; on EGFR kinase, 3.3 nM; with N87, 22.3 nM; in the experiment with BT-474 it was 13.2 nM.
Take `Cc1cc(Nc2ncnc3ccc(-c4ccc(CNCCS(C)(=O)=O)s4)cc23)ccc1Oc1cc2nncn2cn1` [Embodiment 79]: the IC50 at ErbB2 kinase turned out to be 1.7 nM; at EGFR kinase, 7.7 nM; in the experiment on N87, 37.2 nM; with BT-474, 24.7 nM.
The matching figures for `Cc1cc(Nc2ncnc3ccc(-c4cc[nH]c4)cc23)ccc1Oc1cc2nncn2cn1` [Embodiment 80, N-(4-([1,2,4]triazolo[4,3-c]pyrimidin-7-yloxy)-3-methylphenyl)-6-(1H-pyrrol-3-yl)quinazolin-4-amine]: 1 nM, 12.6 nM, 36 nM and 120 nM.
`CC1(C)COC(Nc2ccc3ncnc(Nc4ccc(Oc5cc6nncn6cn5)c(C(F)(F)F)c4)c3c2)=N1` [Embodiment 81, N^4-(3-trifluoromethyl-4-([1,2,4]triazolo[4,3-c]pyrimidin-7-yloxy)phenyl)-N^6-(4,4-dimethyl-4,5-dihydrooxazol-2-yl)quinazolin-4,6-diamine]: the IC50 at ErbB2 kinase was 16.6 nM; on EGFR kinase it was 51.9 nM; in the experiment on N87, 749 nM; in the experiment on BT-474, 1270 nM.
For `Cc1cc(Nc2ncnc3ccc(NC(=O)CCl)cc23)ccc1Oc1cc2nncn2cn1` [Embodiment 82, N-(4-((4-([1,2,4]triazolo[4,3-c]pyrimidin-7-yloxy)-3-methylphenyl)amino)quinazolin-6-yl)-2-chloroacetamide], the IC50 on ErbB2 kinase was 1.1 nM; on EGFR kinase, 2.2 nM; with N87, 5 nM; with BT-474, 7.1 nM.
The matching figures for `Cc1cc(Nc2ncnc3ccc(-n4cccc4)cc23)ccc1Oc1cc2nncn2cn1` [Embodiment 83, N-(4-([1,2,4]triazolo[4,3-c]pyrimidin-7-yloxy)-3-methylphenyl)-6-(1H-pyrrol-1-yl)-quinazolin-4-amine]: 2.3 nM, 36.4 nM, 104 nM and 72.7 nM.
`C=C(C)C(=O)Nc1ccc2ncnc(Nc3ccc(Oc4cc5nncn5cn4)c(C)c3)c2c1` [Embodiment 84, N-(4-((4-([1,2,4]triazolo[4,3-c]pyrimidin-7-yloxy)-3-methylphenyl)amino)quinazolin-6-yl)-methacrylamide]: the IC50 on ErbB2 kinase was found to be 3 nM; at EGFR kinase, 89.4 nM; in the experiment on N87 it was 31.1 nM; in the experiment on BT-474, 21.8 nM.
The corresponding values for `Cc1cc(Nc2ncnc3ccc(-n4ccc(CNCCS(C)(=O)=O)c4)cc23)ccc1Oc1cc2nncn2cn1` [Embodiment 86, N-(4-([1,2,4]triazolo[4,3-c]pyrimidin-7-yloxy)-3-methylphenyl)-6-(3-(((2-(methylsulfonyl)ethyl)amino)methyl)-1H-pyrrol-1-yl)quinazolin-4-amine] are 3.1 nM, 7.7 nM, 160 nM and 33.8 nM.
The corresponding values for `Cc1cc(Nc2ncnc3ccc(NC4=NC5(CCCC5)CO4)cc23)ccc1Oc1cc2nncn2cn1` [Embodiment 87] are 1.9 nM, 6.5 nM, 25.3 nM and 15.3 nM.
The matching figures for `C=CC(=O)N1CCC(Oc2cc3c(Nc4ccc(Oc5cc6nncn6cn5)c(F)c4)ncnc3cc2OC)CC1` [Embodiment 88, 1-(4-((4-((4-([1,2,4]triazolo[4,3-c]pyrimidin-7-yloxy)-3-fluorophenyl)amino)-7-methoxyquinazolin-6-yl)oxy)piperidin-1-yl)prop-2-en-1-one]: 1.13 nM, 1.9 nM, 5.2 nM and 6.3 nM.
For the molecule `Cc1cc(Nc2ncnc3ccc(NC4=NCC(C)(C)O4)cc23)ccc1Oc1cc2nncn2cn1` [Embodiment 90, N^4-(4-([1,2,4]triazolo[4,3-c]pyrimidin-7-yloxy)-3-methylphenyl)-N^6-(5,5-dimethyl-4,5-dihydrooxazol-2-yl)quinazolin-4,6-diamine], the IC50 on ErbB2 kinase was found to be 11.1 nM; on EGFR kinase it was 494 nM; with N87, 271 nM; in the experiment with BT-474 it was 185 nM.
Regarding `Cc1cc(Nc2ncnc3ccc(NC4=N[C@@H](C(C)C)CO4)cc23)ccc1Oc1cc2nncn2cn1` [Embodiment 91, (S)—N^4-(4-([1,2,4]triazolo[4,3-c]pyrimidin-7-yloxy)-3-methylphenyl)-N^6-(4-isopropyl-4,5-dihydrooxazol-2-yl)quinazolin-4,6-diamine], the IC50 on ErbB2 kinase came out at 2.76 nM; at EGFR kinase, 26.9 nM; with N87, 76.8 nM; in the experiment on BT-474, 38.8 nM.
Turning to `C=CC(=O)N1CCC(Oc2cc3c(Nc4ccc(Oc5cc6nncn6cn5)c(Cl)c4)ncnc3cc2OC)CC1` [Embodiment 92, 1-(4-((4-((4-([1,2,4]triazolo[4,3-c]pyrimidin-7-yloxy)-3-chlorophenyl)amino)-7-methoxyquinazolin-6-yl)oxy)piperidin-1-yl)prop-2-en-1-one], the IC50 at ErbB2 kinase was determined as 0.44 nM; at EGFR kinase it was 0.7 nM; with N87, 3.4 nM; in the experiment with BT-474, 2.2 nM.
Regarding `Cc1cc(Nc2ncnc3ccc(NC(=O)/C=C/[C@H]4CCCN4C)cc23)ccc1Oc1cc2nncn2cn1` [Embodiment 94, (R,E)-N-(4-((4-([1,2,4]triazolo[4,3-c]pyrimidin-7-yloxy)-3-methylphenyl)amino)quinazolin-6-yl)-3-(1-methylpyrrolidin-2-yl)acrylamide], the IC50 on ErbB2 kinase was 2.99 nM; at EGFR kinase, 3.16 nM; in the experiment with N87 it was 4.7 nM; with BT-474, 4.8 nM.
The corresponding values for `Cc1cc(Nc2ncnc3ccc(NC(=O)/C=C/[C@@H]4CCCN4)cc23)ccc1Oc1cc2nncn2cn1` [Embodiment 96, (S,E)-N-(4-((4-([1,2,4]triazolo[4,3-c]pyrimidin-7-yloxy)-3-methylphenyl)amino)quinazolin-6-yl)-3-(pyrrolidin-2-yl)acrylamide] are 3.43 nM, 3.79 nM, 93.5 nM and 55.9 nM.
`Cc1cc(Nc2ncnc3ccc(NC(=O)/C=C/[C@@H]4CCCN4C)cc23)ccc1Oc1cc2nncn2cn1` [Embodiment 97, (S,E)-N-(4-((4-([1,2,4]triazolo[4,3-c]pyrimidin-7-yloxy)-3-methylphenyl)amino)quinazolin-6-yl)-3-(1-methylpyrrolidin-2-yl)acrylamide]: the IC50 at ErbB2 kinase turned out to be 4.84 nM; at EGFR kinase, 11.4 nM; with N87, 10 nM; with BT-474 it was 6.4 nM.
The corresponding values for `CN1CCC[C@@H]1/C=C/C(=O)Nc1ccc2ncnc(Nc3ccc(Oc4cc5nncn5cn4)c(Cl)c3)c2c1` [Embodiment 98, (R,E)-N-(4-((4-([1,2,4]triazolo[4,3-c]pyrimidin-7-yloxy)-3-chlorophenyl)amino)quinazolin-6-yl)-3-(1-methylpyrrolidin-2-yl)acrylamide] are 1.78 nM, 1.6 nM, 2.5 nM and 3 nM.
Regarding `Cc1cc(Nc2ncnc3ccc(-c4ccc(CN(C)CCS(C)(=O)=O)o4)cc23)ccc1Oc1cc2nncn2cn1` [Embodiment 105], the IC50 was 1.2 nM at ErbB2 kinase, 26 nM on EGFR kinase, 17.3 nM in the experiment on N87 and 22.9 nM with BT-474.
For the molecule `Cc1cc(Nc2ncnc3ccc(NC(=S)NC(C)(C)CO)cc23)ccc1Oc1cc2nncn2cn1` [Embodiment 106, 1-(4-((4-([1,2,4]triazolo[4,3-c]pyrimidin-7-yloxy)-3-methylphenyl)amino)quinazolin-6-yl)-3-(1-hydroxy-2-methylpropan-2-yl)thiourea], the IC50 at ErbB2 kinase was found to be 21.5 nM; on EGFR kinase, 445 nM; in the experiment on N87 it was 933 nM; with BT-474, 264 nM.
The corresponding values for `Cc1cc(Nc2ncnc3ccc(-c4cccc(NCCS(C)(=O)=O)c4)cc23)ccc1Oc1cc2nncn2cn1` [Embodiment 115] are 5.91 nM, 75.9 nM, 84 nM and 58.6 nM.
For `Cc1cc(Nc2ncnc3ccc(-c4cccc(N5CCS(=O)(=O)CC5)c4)cc23)ccc1Oc1cc2nncn2cn1` [Embodiment 116, 4-(3-(4-((4-([1,2,4]triazolo[4,3-c]pyrimidin-7-yloxy)-3-methylphenyl)amino)quinazolin-6-yl)phenyl)thiomorpholin-1,1-dioxide], the IC50 at ErbB2 kinase stood at 1.3 nM; at EGFR kinase it was 11.7 nM; in the experiment with N87 it was 18.3 nM; in the experiment on BT-474 it was 12.6 nM.
The matching figures for `C=CC(=O)N1CC=C(c2ccc3ncnc(Nc4ccc(Oc5cc6nncn6cn5)c(C)c4)c3c2)CC1` [Embodiment 117, 1-(4-(4-((4-([1,2,4]triazolo[4,3-c]pyrimidin-7-yloxy)-3-methylphenyl)amino)quinazolin-6-yl)-5,6-dihydropyridin-1(2H)-yl)prop-2-en-1-one]: 3.6 nM, 100 nM, 2.1 nM and 3.1 nM.
